Laboratory results: ChEMBL document CHEMBL1152604, “Design, synthesis and biological evaluation of tripeptide boronic acid proteasome inhibitors” (Bioorg Med Chem, 2009)
pIC50: −log10 of the molar value.

Experiments:
[1] = Inhibition of trypsin-like activity of mouse liver 20S proteasome
[2] = Inhibition of peptidylglutamyl peptide-hydrolyzing activity of mouse liver 20S proteasome
[3] = Inhibition of chymotrypsin-like activity of mouse liver 20S proteasome
[4] = tested on: BXPC-3; test: Cytotoxicity against human BxPC3 cells after 72 hrs by MTT assay; assay type: functional, cell-based; details: BXPC-3, 72 h
[5] = tested on: BGC-823; test: Cytotoxicity against human BGC823 cells after 72 hrs by MTT assay; assay type: functional, cell-based; details: BGC-823, 72 h
[6] = tested on: U-266; test: Cytotoxicity against human U266 cells after 72 hrs by MTT assay; assay type: functional, cell-based; details: U-266, 72 h
[7] = tested on: HL-60; test: Cytotoxicity against human HL60 cells after 72 hrs by MTT assay; assay type: functional, cell-based; details: HL-60, 72 h

Row | Structure (SMILES) | pIC50 [1] | pIC50 [2] | pIC50 [3] | pIC50 [4] | pIC50 [5] | pIC50 [6] | pIC50 [7]
1 | CC(C)C[C@H](NC(=O)c1cnccn1)C(=O)N[C@@H](CC(C)C)C(=O)N[C@H](CC(C)C)B(O)O | < 7.70 | < 7.70 | < 7.70 |  |  |  | 
2 | CC(C)C[C@@H](NC(=O)[C@H](Cc1ccc(O)cc1)NC(=O)[C@H](Cc1ccccc1)NC(=O)c1cnccn1)B(O)O | < 7.70 | 8.40 | 9.40 | 6.35 | 5.29 | 6.60 | 6.26
3 | CC(C)C[C@H](NC(=O)c1cnccn1)C(=O)N[C@@H](Cc1ccccc1)C(=O)N[C@H](CC(C)C)B(O)O | < 7.70 | 8.29 | 9.72 |  |  |  | 
4 | CC(C)C[C@H](NC(=O)[C@H](Cc1ccccc1)NC(=O)c1cnccn1)C(=O)N[C@H](CC(C)C)B(O)O | < 7.70 | 8.25 | 9.76 |  |  |  | 
5 | CC(C)C[C@@H](NC(=O)[C@H](Cc1ccccc1)NC(=O)[C@H](Cc1ccccc1)NC(=O)c1cnccn1)B1O[C@@H]2[C@@H](C[C@H]3C[C@@H]2C3(C)C)O1 | < 7.70 | 8.08 | 9.40 |  |  |  | 
6 | CC(C)C[C@@H](NC(=O)[C@H](Cc1ccccc1)NC(=O)[C@H](Cc1ccc(O)cc1)NC(=O)c1cnccn1)B(O)O | < 7.70 | 8.60 | 9.58 | 6.59 | 5.61 | 7.18 | 6.35
7 | CC(C)C[C@H](NC(=O)[C@H](Cc1ccccc1)NC(=O)c1cnccn1)C(=O)N[C@H](CC(C)C)B1O[C@@H]2[C@@H](C[C@H]3C[C@@H]2C3(C)C)O1 | < 7.70 | 8.56 | 9.54 |  |  |  | 
8 | CC(C)C[C@@H](NC(=O)[C@H](Cc1ccccc1)NC(=O)[C@H](Cc1c[nH]c2ccccc12)NC(=O)c1cnccn1)B(O)O | < 7.70 | < 7.70 | < 7.70 |  |  |  | 
9 | CC(C)C[C@@H](NC(=O)[C@H](Cc1ccc2ccccc2c1)NC(=O)[C@H](Cc1ccccc1)NC(=O)c1cnccn1)B(O)O | < 7.70 | 8.42 | 9.95 | 7.54 | 5.98 | 7.80 | 8.13
10 | CC(C)C[C@@H](NC(=O)C(Cc1ccc(O)cc1)NC(=O)[C@H](Cc1ccccc1)NC(=O)c1cnccn1)B1O[C@@H]2[C@@H](C[C@H]3C[C@@H]2C3(C)C)O1 (some centres undefined) | < 7.70 | 8.27 | 9.47 |  |  |  | 
11 | CC(C)C[C@@H](NC(=O)[C@H](Cc1ccccc1)NC(=O)[C@H](Cc1ccc2ccccc2c1)NC(=O)c1cnccn1)B1O[C@@H]2[C@@H](C[C@H]3C[C@@H]2C3(C)C)O1 | < 7.70 | < 7.70 | 9.66 |  |  |  | 
12 | CC(C)C[C@H](NC(=O)c1cnccn1)C(=O)N[C@@H](CC(C)C)C(=O)N[C@H](CC(C)C)B1O[C@@H]2[C@@H](C[C@H]3C[C@@H]2C3(C)C)O1 | < 7.70 | < 7.70 | < 7.70 |  |  |  | 
13 | CC(C)C[C@@H](NC(=O)[C@H](Cc1ccccc1)NC(=O)[C@H](Cc1ccc(O)cc1)NC(=O)c1cnccn1)B1O[C@@H]2[C@@H](C[C@H]3C[C@@H]2C3(C)C)O1 | < 7.70 | 8.32 | 9.53 |  |  |  | 
14 | CC(C)C[C@@H](NC(=O)[C@H](Cc1ccccc1)NC(=O)[C@H](Cc1ccccc1)NC(=O)c1cnccn1)B(O)O | < 7.70 | 7.96 | 9.26 |  |  |  | 
15 | CC(C)C[C@H](NC(=O)c1cnccn1)C(=O)N[C@@H](Cc1ccc2ccccc2c1)C(=O)N[C@H](CC(C)C)B1O[C@@H]2[C@@H](C[C@H]3C[C@@H]2C3(C)C)O1 | < 7.70 | 8.41 | 9.43 |  |  |  | 
16 | CC(C)C[C@@H](NC(=O)[C@H](Cc1c[nH]c2ccccc12)NC(=O)[C@H](Cc1ccccc1)NC(=O)c1cnccn1)B(O)O | < 7.70 | < 7.70 | < 7.70 |  |  |  | 
17 | CC(C)C[C@H](NC(=O)[C@H](Cc1ccccc1)NC(=O)c1cnccn1)B(O)O [BORTEZOMIB] | < 7.70 | < 7.70 | 9.79 |  |  |  | 

Second part, led by results:

Row | pIC50 [1] | pIC50 [2] | pIC50 [3] | Structure (SMILES) | pIC50 [4] | pIC50 [5] | pIC50 [6] | pIC50 [7]
18 | < 7.70 | < 7.70 | 9.35 | CC(C)C[C@@H](NC(=O)[C@H](Cc1ccc2ccccc2c1)NC(=O)[C@H](Cc1ccccc1)NC(=O)c1cnccn1)B1O[C@@H]2[C@@H](C[C@H]3C[C@@H]2C3(C)C)O1 |  |  |  | 
19 | < 7.70 | < 7.70 | 9.47 | CC(C)C[C@@H](NC(=O)[C@H](Cc1ccc2ccccc2c1)NC(=O)[C@H](Cc1ccc2ccccc2c1)NC(=O)c1cnccn1)B(O)O | 7.48 | 5.61 | 6.71 | 7.71
20 | < 7.70 | < 7.70 | < 7.70 | CC(C)C[C@@H](NC(=O)[C@H](Cc1ccccc1)NC(=O)[C@H](Cc1c[nH]c2ccccc12)NC(=O)c1cnccn1)B1O[C@@H]2[C@@H](C[C@H]3C[C@@H]2C3(C)C)O1 |  |  |  | 
21 | < 7.70 | 8.35 | 9.38 | CC(C)C[C@@H](NC(=O)[C@H](Cc1ccccc1)NC(=O)[C@H](Cc1ccc2ccccc2c1)NC(=O)c1cnccn1)B(O)O | 7.50 | 5.55 | 7.28 | 8.00
22 | < 7.70 | 7.85 | 9.46 | CC(C)C[C@H](NC(=O)[C@H](Cc1ccc2ccccc2c1)NC(=O)c1cnccn1)C(=O)N[C@H](CC(C)C)B1O[C@@H]2[C@@H](C[C@H]3C[C@@H]2C3(C)C)O1 |  |  |  | 
23 | < 7.70 | 8.47 | 9.37 | CC(C)C[C@H](NC(=O)c1cnccn1)C(=O)N[C@@H](Cc1ccccc1)C(=O)N[C@H](CC(C)C)B1O[C@@H]2[C@@H](C[C@H]3C[C@@H]2C3(C)C)O1 |  |  |  | 
24 | < 7.70 | 7.89 | 9.66 | CC(C)C[C@H](NC(=O)[C@H](Cc1ccc2ccccc2c1)NC(=O)c1cnccn1)C(=O)N[C@H](CC(C)C)B(O)O | 7.36 | 5.76 | 6.92 | 7.82
25 | < 7.70 | 8.44 | 10.10 | CC(C)C[C@H](NC(=O)c1cnccn1)C(=O)N[C@@H](Cc1ccc2ccccc2c1)C(=O)N[C@H](CC(C)C)B(O)O | 7.67 | 6.22 | 8.00 | 8.34
26 | < 7.70 | < 7.70 | < 7.70 | CC(C)C[C@@H](NC(=O)[C@H](Cc1c[nH]c2ccccc12)NC(=O)[C@H](Cc1ccccc1)NC(=O)c1cnccn1)B1O[C@@H]2[C@@H](C[C@H]3C[C@@H]2C3(C)C)O1 |  |  |  | 
27 | < 7.70 | < 7.70 | 9.31 | CC(C)C[C@@H](NC(=O)[C@H](Cc1ccc2ccccc2c1)NC(=O)[C@H](Cc1ccc2ccccc2c1)NC(=O)c1cnccn1)B1O[C@@H]2[C@@H](C[C@H]3C[C@@H]2C3(C)C)O1 |  |  |  | 
